The source of these data is publication PMC3130777, “Phase I Hydroxylated Metabolites of the K2 Synthetic Cannabinoid JWH-018 Retain In Vitro and In Vivo Cannabinoid 1 Receptor Affinity and Activity” (PLoS ONE, 2011).

SMILES strings stand for the structures. Values joined by “and” are separate entries in the source; they are usually repeats but may differ in a detail not shown here. Identical values can stand only once. Like-named read-outs stand apart in the source and are kept apart here.

For orientation: Ki means a measure of affinity in units of concentration, obtained from inhibition or displacement. Usually EC50 stands for the concentration at which the effect is half-maximal.

Test [1] has as its system NIH Swiss mice. Briefly: Locomotor activity measured by radiotelemetry in mice. Type of test: in vivo, mouse. Conditions: for Locomotor activity (area under the curve) relative to vehicle controls: 10 h time course, n = 5.
In test [2] the test system is NIH Swiss mice. Briefly: Core body temperature measured by radiotelemetry in mice. Type of test: in vivo, mouse. To be noted: for Core body temperature area under the curve relative to vehicle controls: 0–10 hr, n = 5; for Depression in core body temperature compared with 30 mg/kg Δ^9-THC: 10 h time course.
Test [3] deals with T1, CB1R (Mus musculus, UniProt P47746).
T1 construct: CB1Rs are endogenously expressed in abundant quantities in the CNS; from tissue; host or cells: whole brain of B6SJL mice, crude membrane homogenates
T1 sequence (P47746 whole entry): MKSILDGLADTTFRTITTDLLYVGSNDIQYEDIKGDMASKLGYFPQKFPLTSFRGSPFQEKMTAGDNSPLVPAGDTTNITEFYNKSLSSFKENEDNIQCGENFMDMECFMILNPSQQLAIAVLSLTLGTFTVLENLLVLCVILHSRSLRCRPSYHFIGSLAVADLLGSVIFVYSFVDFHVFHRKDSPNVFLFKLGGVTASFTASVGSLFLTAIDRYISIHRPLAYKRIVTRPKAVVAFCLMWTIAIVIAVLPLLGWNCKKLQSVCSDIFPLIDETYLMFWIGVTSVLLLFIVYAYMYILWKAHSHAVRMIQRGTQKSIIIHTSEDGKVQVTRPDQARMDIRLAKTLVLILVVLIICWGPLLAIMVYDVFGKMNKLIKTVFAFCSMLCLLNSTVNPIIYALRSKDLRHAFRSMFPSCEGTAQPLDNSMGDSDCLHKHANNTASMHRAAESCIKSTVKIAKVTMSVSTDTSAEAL
Briefly: biochemical. Conditions: for Fold higher CB1R affinity than Δ^9-THC: relative to Δ^9-THC Ki; for Displacement of [^3H]CP-55,940 from CB1Rs: mouse brain homogenates, data not shown. Type of test: binding.

The target of test [4] is T1, CB1R. Type of test: biochemical. To be noted: for Agonist type at mCB1Rs (partial or full) / Level of G-protein stimulation relative to Δ^9-THC: 10 µM; for Agonist type at mCB1Rs (partial or full): compared with full agonist CP-55,940; for G-protein stimulation ([^35S]GTPγS bound): receptor saturating concentration (10 µM), Fig. 3A. Background: Binding of GTPγS marks nucleotide exchange on a G protein.

Test [5] addresses CB1R. More on the design: method as in PMID 10940540, PMID 21079038. To be noted: read-out: Ki values previously reported; cited from earlier work.
Setting [6] is: AM-251 10 mg/kg pretreatment, 30 mg/kg Δ^9-THC, 3 mg/kg JWH-018, 10 mg/kg M1 i.p.
Where [7] appears, read: concentration-effect curve, Fig. 3B, n = 3–4.
Where [8] appears, read: Affinity (Ki) for CB1Rs, competition against 0.2 nM [^3H]CP-55,940, mouse whole brain membrane homogenates, mean ± SEM, n = 3–4.

For `Cc1c(C(=O)NN2CCCCC2)nn(-c2ccc(Cl)cc2Cl)c1-c1ccc(I)cc1` [AM-251, reference compound], the “Effect of Δ^9-THC, JWH-018 and M1 on locomotor activity after antagonist pretreatment” value in test [1] (setting [6]) is given as “significantly attenuated”. In test [2] (setting [6]), the “Core body temperature after antagonist pretreatment of cannabinoid-treated mice” value is “restored core body temperature to control levels”.

On to `CCCCCCC(C)(C)c1ccc([C@@H]2C[C@H](O)CC[C@H]2CCCO)c(O)c1` [CP-55,940, reference compound], for which the Ki in test [3] (competition against 0.2 nM [^3H]CP-55,940, mouse whole brain membrane homogenates, mean ± SEM, n = 3–4, read-out: Affinity (Ki) for CB1Rs) is 0.26 ± 0.12 nM. Moreover, in test [4], the “Agonist type at mCB1Rs (partial or full)” value is listed as “full” and the “G-protein stimulation ([^35S]GTPγS bound)” value was found to be 0.39 ± 0.02 pmol/mg. Further, the “Maximal efficacy (Emax) of G-protein activation” value in test [4] (setting [7]) came out at 0.28 ± 0.02 pmol/mg. Further, in test [4] (concentration-effect curve, Fig. 3B, n = 3–4, read-out: EC50 of G-protein activation), the EC50 stood at 3.36 ± 2.35 nM.

Turning to `CCCCCn1cc(C(=O)c2cccc3ccccc23)c2ccccc21` [JWH-018, (1-pentyl-1H-indol-3-yl)-1-naphthalenyl-methanone], in test [3] (setting [8]), the inhibition constant Ki was 1.2 nM and 1.22 nM. Moreover, the “Fold higher CB1R affinity than Δ^9-THC” value in test [3] is about 10 fold. Besides, in test [4], the “Level of G-protein stimulation relative to Δ^9-THC” value was “greater”, the “Agonist type at mCB1Rs (partial or full)” value is given as “full” and the “G-protein stimulation ([^35S]GTPγS bound)” value came to 0.29 ± 0.02 pmol/mg. Moreover, the “Maximal efficacy (Emax) of G-protein activation” value in test [4] (setting [7]) was found to be 0.29 ± 0.02 pmol/mg. The “Locomotor activity (area under the curve) relative to vehicle controls” value in test [1] (3 mg/kg i.p.) was “significantly decrease”. Besides, in test [2] (3 mg/kg i.p.), the “Core body temperature area under the curve relative to vehicle controls” value is recorded as “significantly lower than vehicle controls” and the “Depression in core body temperature compared with 30 mg/kg Δ^9-THC” value is reported as “greater depressions”. Also, the inhibition constant (Ki) in test [5] is 9 nM.

`CCCCCn1cc(C(=O)c2cccc3ccccc23)c2c(O)cccc21` [M1, (4-hydroxy-1-pentyl-1H-indol-3-yl)(naphthalen-1-yl)methanone]: the inhibitory constant (Ki) in test [3] (setting [8]) is 2.6 nM and 2.65 nM. In addition, in test [3], the “Displacement of [^3H]CP-55,940 from CB1Rs” value (“Displacement” for short) is “completely displaced” and the “Fold higher CB1R affinity than Δ^9-THC” value is about 10 fold. In addition, in test [4], the “Level of G-protein stimulation relative to Δ^9-THC” value is “greater” and the “Agonist type at mCB1Rs (partial or full)” value is on record as “partial”. In addition, in test [1] (10 mg/kg i.p.), the “Locomotor activity (area under the curve) relative to vehicle controls” value was “significantly decrease”. Also, in test [2] (10 mg/kg i.p.), the “Core body temperature area under the curve relative to vehicle controls” value is listed as “significantly lower than vehicle controls” and the “Depression in core body temperature compared with 30 mg/kg Δ^9-THC” value is on record as “greater depressions”.

Consider `CCCCCn1cc(C(=O)c2cccc3ccccc23)c2cc(O)ccc21` [M2, (5-hydroxy-1-pentyl-1H-indol-3-yl)(naphthalen-1-yl)methanone], for which, in test [3] (setting [8]), the Ki stood at 4.22 ± 1.16 nM. Moreover, in test [3], the “Displacement” value was “completely displaced”. Further, in test [4], the “Level of G-protein stimulation relative to Δ^9-THC” value was “greater”, the “Agonist type at mCB1Rs (partial or full)” value is “full” and the “G-protein stimulation ([^35S]GTPγS bound)” value was determined as 0.32 ± 0.03 pmol/mg.

Molecule `CCCCCn1cc(C(=O)c2cccc3ccccc23)c2ccc(O)cc21` [M3, (6-hydroxy-1-pentyl-1H-indol-3-yl)(naphthalen-1-yl)methanone] displayed a Ki in test [3] (setting [8]) of 17.2 ± 3.58 nM. The “Displacement” value in test [3] is recorded as “completely displaced”. In test [4], the “Level of G-protein stimulation relative to Δ^9-THC” value is “greater” and the “Agonist type at mCB1Rs (partial or full)” value is recorded as “full”.

As to `CCCCCn1cc(C(=O)c2cccc3ccccc23)c2cccc(O)c21` [M4], the Ki in test [3] (setting [8]) worked out at 20.8 ± 4.85 nM. Further, the “Displacement” value in test [3] was “completely displaced”. In test [4], the “Level of G-protein stimulation relative to Δ^9-THC” value was “equivalent” and the “Agonist type at mCB1Rs (partial or full)” value is reported as “partial”.

`O=C(c1cccc2ccccc12)c1cn(CCCCCO)c2ccccc12` [M5, (1-(5-hydroxypentyl)-1H-indol-3-yl)(naphthalen-1-yl)methanone] returned an inhibition constant Ki in test [3] (setting [8]) of 25.2 ± 4.99 nM. The “Displacement” value in test [3] is “completely displaced”. In addition, in test [4], the “Level of G-protein stimulation relative to Δ^9-THC” value is reported as “greater” and the “Agonist type at mCB1Rs (partial or full)” value is on record as “full”.

`O=C(O)CCCCn1cc(C(=O)c2cccc3ccccc23)c2ccccc21` [M6, 5-(3-(1-naphthoyl)-1H-indol-1-yl)pentanoic acid] registered a Ki in test [3] (setting [8]) of over 10000 nM. Further, the “Affinity (Ki) for CB1Rs” value in test [3] (competition against 0.2 nM [^3H]CP-55,940, mouse whole brain membrane homogenates, mean ± SEM, n = 3–4) is recorded as “fails to bind”.
